Measurements as given in ChEMBL document CHEMBL4400519, “Indazolylketones as new multitarget cannabinoid drugs” (Eur J Med Chem, 2019).
The source made the active and inactive calls. The rule behind the calls is not given here.

Assays:
[1] = biological target: T1, Cannabinoid receptor (Mus musculus) (UniProt P47746+P47936); experiment: Agonist activity at cannabinoid receptor in ICR mouse vas deferens assessed as inhibition of electrically induced contractions at 1.82 x 10^-5 M after 10 mins in presence of CB2 antagonist AM630 relative to control; type: protein assay
T1 sequence (P47746 whole entry, looked up): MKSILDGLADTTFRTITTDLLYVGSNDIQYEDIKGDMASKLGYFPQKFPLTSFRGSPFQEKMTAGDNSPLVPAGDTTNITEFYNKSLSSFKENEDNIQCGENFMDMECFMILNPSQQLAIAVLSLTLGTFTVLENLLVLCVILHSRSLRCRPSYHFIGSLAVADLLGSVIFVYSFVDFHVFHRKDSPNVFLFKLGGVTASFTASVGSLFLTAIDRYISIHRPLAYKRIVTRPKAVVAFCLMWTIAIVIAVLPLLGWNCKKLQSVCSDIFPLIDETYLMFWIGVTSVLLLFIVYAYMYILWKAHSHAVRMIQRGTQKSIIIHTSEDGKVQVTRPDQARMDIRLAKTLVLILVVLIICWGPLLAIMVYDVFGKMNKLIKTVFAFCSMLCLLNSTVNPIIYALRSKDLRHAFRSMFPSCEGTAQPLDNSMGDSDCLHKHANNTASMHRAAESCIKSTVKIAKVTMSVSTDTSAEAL
T1 sequence (P47936 whole entry, looked up): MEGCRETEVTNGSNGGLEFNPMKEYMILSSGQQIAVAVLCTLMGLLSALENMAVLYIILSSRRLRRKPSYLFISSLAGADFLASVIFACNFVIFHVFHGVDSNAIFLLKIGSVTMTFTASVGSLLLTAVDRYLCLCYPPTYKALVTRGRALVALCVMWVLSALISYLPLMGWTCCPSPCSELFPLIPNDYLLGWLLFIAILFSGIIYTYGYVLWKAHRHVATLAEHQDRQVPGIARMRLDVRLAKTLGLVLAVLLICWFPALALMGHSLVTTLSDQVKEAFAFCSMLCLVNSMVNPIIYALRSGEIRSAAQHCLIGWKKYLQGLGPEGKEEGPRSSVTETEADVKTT

[2] = biological target: T1, Cannabinoid receptor (Mus musculus); experiment: Agonist activity at cannabinoid receptor in ICR mouse vas deferens assessed as inhibition of electrically induced contractions at 8.1 x 10^-6 M after 10 mins in presence of CB2 antagonist AM630 relative to control; type: protein assay
[3] = biological target: T1, Cannabinoid receptor (Mus musculus); experiment: Agonist activity at cannabinoid receptor in ICR mouse vas deferens assessed as inhibition of electrically induced contractions at 10^-7 M after 10 mins in presence of CB1 antagonist AM251 relative to control; type: protein assay
[4] = biological target: T1, Cannabinoid receptor (Mus musculus); experiment: Agonist activity at cannabinoid receptor in ICR mouse vas deferens assessed as inhibition of electrically induced contractions at 1.82 x 10^-5 M after 10 mins relative to control; type: protein assay
[5] = biological target: T1, Cannabinoid receptor (Mus musculus); experiment: Agonist activity at cannabinoid receptor in ICR mouse vas deferens assessed as inhibition of electrically induced contractions at 1.82 x 10^-5 M after 10 mins in presence of CB1 antagonist AM251 relative to control; type: protein assay
[6] = biological target: T1, Cannabinoid receptor (Mus musculus); experiment: Agonist activity at cannabinoid receptor in ICR mouse vas deferens assessed as inhibition of electrically induced contractions at 9 x 10^-7 M after 10 mins in presence of CB1 antagonist AM251 relative to control; type: protein assay
Cholinesterase = Cholinesterase (Homo sapiens, UniProt P06276); experiment: Inhibition of human serum BChE using butyrylthiocholine as substrate by Ellman's assay
Chain of Cholinesterase (P06276 whole entry): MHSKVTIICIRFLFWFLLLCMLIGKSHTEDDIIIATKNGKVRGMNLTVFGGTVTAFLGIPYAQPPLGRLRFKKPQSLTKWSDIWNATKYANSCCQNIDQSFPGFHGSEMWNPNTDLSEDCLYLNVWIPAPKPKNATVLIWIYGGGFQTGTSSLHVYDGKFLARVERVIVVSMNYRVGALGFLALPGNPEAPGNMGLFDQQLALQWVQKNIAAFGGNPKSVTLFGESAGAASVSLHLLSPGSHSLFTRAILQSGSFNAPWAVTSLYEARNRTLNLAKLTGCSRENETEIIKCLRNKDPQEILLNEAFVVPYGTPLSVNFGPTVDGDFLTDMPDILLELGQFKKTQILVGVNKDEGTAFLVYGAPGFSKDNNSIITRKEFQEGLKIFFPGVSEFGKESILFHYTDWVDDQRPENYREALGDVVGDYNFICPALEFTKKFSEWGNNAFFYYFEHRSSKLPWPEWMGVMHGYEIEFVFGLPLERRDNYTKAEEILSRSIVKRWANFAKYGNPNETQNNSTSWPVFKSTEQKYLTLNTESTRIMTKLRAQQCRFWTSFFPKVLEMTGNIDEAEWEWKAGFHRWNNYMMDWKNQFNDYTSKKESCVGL

Acetylcholinesterase [7] = biological target: T2, Acetylcholinesterase (Homo sapiens, UniProt P22303); experiment: Inhibition of human erythrocyte AChE using acetylthiocholine as substrate by Ellman's assay
T2 sequence (P22303 whole entry): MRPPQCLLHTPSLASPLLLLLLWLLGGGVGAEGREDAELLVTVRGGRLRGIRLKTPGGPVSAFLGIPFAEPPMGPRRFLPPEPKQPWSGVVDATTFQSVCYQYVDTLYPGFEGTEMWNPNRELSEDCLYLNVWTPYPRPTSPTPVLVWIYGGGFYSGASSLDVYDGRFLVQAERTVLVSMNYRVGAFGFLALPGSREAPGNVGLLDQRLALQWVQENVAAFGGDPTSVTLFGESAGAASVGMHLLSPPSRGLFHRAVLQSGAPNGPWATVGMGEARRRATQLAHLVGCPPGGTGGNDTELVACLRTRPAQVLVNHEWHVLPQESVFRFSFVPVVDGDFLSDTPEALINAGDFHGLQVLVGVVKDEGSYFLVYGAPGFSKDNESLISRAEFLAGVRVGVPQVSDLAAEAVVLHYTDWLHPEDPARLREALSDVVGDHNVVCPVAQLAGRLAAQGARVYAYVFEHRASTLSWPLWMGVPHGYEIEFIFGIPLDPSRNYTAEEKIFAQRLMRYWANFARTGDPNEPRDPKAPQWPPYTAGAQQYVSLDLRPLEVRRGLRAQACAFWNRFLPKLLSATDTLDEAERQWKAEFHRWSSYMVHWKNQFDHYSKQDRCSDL

[8] = biological target: T1, Cannabinoid receptor (Mus musculus); experiment: Agonist activity at cannabinoid receptor in ICR mouse vas deferens assessed as inhibition of electrically induced contractions at 3 x 10^-7 M after 10 mins in presence of CB2 antagonist AM630 relative to control; type: protein assay
[9] = biological target: T1, Cannabinoid receptor (Mus musculus); experiment: Agonist activity at cannabinoid receptor in ICR mouse vas deferens assessed as inhibition of electrically induced contractions at 8.1 x 10^-6 M after 10 mins in presence of CB1 antagonist AM251 relative to control; type: protein assay
[10] = Antioxidant activity assessed as trolox equivalent of APPH-induced radical scavenging activity by ORAC-FL assay; type: functional
[11] = biological target: T1, Cannabinoid receptor (Mus musculus); experiment: Agonist activity at cannabinoid receptor in ICR mouse vas deferens assessed as inhibition of electrically induced contractions at 2.7 x 10^-6 M after 10 mins in presence of CB1 antagonist AM251 relative to control; type: protein assay
[12] = biological target: T1, Cannabinoid receptor (Mus musculus); experiment: Agonist activity at cannabinoid receptor in ICR mouse vas deferens assessed as inhibition of electrically induced contractions at 10^-7 M after 10 mins relative to control; type: protein assay
[13] = biological target: T1, Cannabinoid receptor (Mus musculus); experiment: Agonist activity at cannabinoid receptor in ICR mouse vas deferens assessed as inhibition of electrically induced contractions at 9 x 10^-7 M after 10 mins relative to control; type: protein assay
[14] = biological target: T1, Cannabinoid receptor (Mus musculus); experiment: Agonist activity at cannabinoid receptor in ICR mouse vas deferens assessed as inhibition of electrically induced contractions at 10^-7 M after 10 mins in presence of CB2 antagonist AM630 relative to control; type: protein assay
Acetylcholinesterase [15] = biological target: T2, Acetylcholinesterase; experiment: Inhibition of human erythrocyte AChE at 10 uM using acetylthiocholine as substrate by Ellman's assay
[16] = biological target: T1, Cannabinoid receptor (Mus musculus); experiment: Agonist activity at cannabinoid receptor in ICR mouse vas deferens assessed as inhibition of electrically induced contractions at 8.1 x 10^-6 M after 10 mins relative to control; type: protein assay
[17] = biological target: T1, Cannabinoid receptor (Mus musculus); experiment: Agonist activity at cannabinoid receptor in ICR mouse vas deferens assessed as inhibition of electrically induced contractions at 9 x 10^-7 M after 10 mins in presence of CB2 antagonist AM630 relative to control; type: protein assay
[18] = biological target: T1, Cannabinoid receptor (Mus musculus); experiment: Agonist activity at cannabinoid receptor in ICR mouse vas deferens assessed as inhibition of electrically induced contractions at 3 x 10^-7 M after 10 mins relative to control; type: protein assay
[19] = biological target: Beta-secretase 1 (Homo sapiens) (UniProt P56817); experiment: Inhibition of human BACE1 at 10 uM incubated for 60 mins using rhodamine-EVNLDAEFK-quencher substrate by FRET assay
Chain of Beta-secretase 1 (Homo sapiens) (P56817 whole entry): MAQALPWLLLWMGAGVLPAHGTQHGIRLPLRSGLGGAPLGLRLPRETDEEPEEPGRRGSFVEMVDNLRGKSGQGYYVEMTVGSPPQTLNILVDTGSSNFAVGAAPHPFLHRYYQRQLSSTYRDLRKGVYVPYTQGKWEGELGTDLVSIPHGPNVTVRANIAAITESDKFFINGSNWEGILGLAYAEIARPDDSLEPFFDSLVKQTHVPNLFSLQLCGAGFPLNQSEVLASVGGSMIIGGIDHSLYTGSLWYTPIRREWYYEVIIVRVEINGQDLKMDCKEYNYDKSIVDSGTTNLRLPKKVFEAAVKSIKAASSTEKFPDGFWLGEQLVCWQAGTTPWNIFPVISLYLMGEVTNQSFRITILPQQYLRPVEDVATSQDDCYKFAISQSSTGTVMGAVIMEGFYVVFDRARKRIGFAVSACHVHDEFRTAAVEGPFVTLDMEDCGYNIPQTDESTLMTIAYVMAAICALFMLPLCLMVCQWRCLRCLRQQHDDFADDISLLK

[20] = biological target: T1, Cannabinoid receptor (Mus musculus); experiment: Agonist activity at cannabinoid receptor in ICR mouse vas deferens assessed as inhibition of electrically induced contractions at 3 x 10^-7 M after 10 mins in presence of CB1 antagonist AM251 relative to control; type: protein assay
[21] = biological target: T1, Cannabinoid receptor (Mus musculus); experiment: Agonist activity at cannabinoid receptor in ICR mouse vas deferens assessed as inhibition of electrically induced contractions at 2.7 x 10^-6 M after 10 mins relative to control; type: protein assay
[22] = biological target: T1, Cannabinoid receptor (Mus musculus); experiment: Agonist activity at cannabinoid receptor in ICR mouse vas deferens assessed as inhibition of electrically induced contractions at 2.7 x 10^-6 M after 10 mins in presence of CB2 antagonist AM630 relative to control; type: protein assay

Compound	inhibition [1]	inhibition [2]	inhibition [3]	inhibition [4]	inhibition [5]	inhibition [6]	IC50 (Cholinesterase)	IC50 (Acetylcholinesterase [7])	inhibition [8]	inhibition [9]	inhibition [11]	inhibition [12]	inhibition [13]	inhibition [14]	inhibition [16]	inhibition [17]	inhibition [18]	inhibition [20]	inhibition [21]	inhibition [22]	further results
O=C(c1cccc2ccccc12)n1nc(OCCCN2CCCC2)c2ccccc21	89.5%	68.7%	-6.7%	87.4%	88.4%	-7.2%	0.00015 µM	> 10 µM	-0.9%	57.9%	5.7%	-2%	3.2%	-2.7%	56.1%	4%	0.5%	-8.6%	11.3%	15.2%	Activity [10]: inactive; inhibition (Acetylcholinesterase [15]): 35%; inhibition [19]: 20%
O=C(c1cccc2ccccc12)n1nc(OCCN2CCCCC2)c2ccccc21	92%	73.6%	-7.7%	93.7%	73.3%		0.00026 µM	> 10 µM	-7.9%	27.8%		-0.7%	8.6%	-8.6%	69.2%	-2.6%	1.4%		28.6%	15.7%	Activity [10]: inactive; inhibition (Acetylcholinesterase [15]): 37%; inhibition [19]: 11%
O=C(c1ccccc1OCc1ccccc1)n1nc(OCCN2CCCC2)c2ccccc21	76.7%	47.2%	-1.9%	68.1%	71.2%	1.3%	0.39 µM	> 10 µM	-1.6%	38.8%	5.9%	1.2%	7.7%	-4%	32.5%	2.7%	3.7%	-0.5%	10.4%	10.3%	Activity [10]: inactive; inhibition [19]: 32%
O=C(c1ccccc1Cl)n1nc(OCCCN2CCCCC2)c2ccccc21	79.8%	34.3%	-1.7%	87.3%	88.2%	4.7%	0.07 µM	9.7 µM	-7%	51.5%	10.7%	-2.2%	8.9%	-7.9%	42.8%	6.2%	2.8%	-0.4%	13%	9.3%	Activity [10]: 0.28 equiv; inhibition [19]: 12%
COc1cc(C(=O)n2nc(OCCN3CCCC3)c3ccccc32)cc(OC)c1OC	69.5%	40%	-0.7%	78%	74%	5.6%	> 10 µM	11.6 µM	0.8%	42.4%	15%	3.2%	14.6%	-1%	49.7%	4.1%	7%	6%	26.9%	10.9%	Activity [10]: inactive; inhibition [19]: 6%
O=C(c1c(F)ccc(F)c1F)n1nc(OCCN2CCCCC2)c2ccccc21	49.1%	32.3%	-5.3%	73.2%	37.1%	6.7%	9.4 µM	9.4 µM	-1.7%	23.6%	10.4%	4.8%	20.8%	-3.3%	60.9%	4.4%	9.2%	-3.5%	40.6%	12.8%	Activity [10]: inactive; inhibition [19]: 14.3%
COc1ccc(CC(=O)n2nc(OCCN3CCCC3)c3ccccc32)cc1	78.6%	47.9%	-1.7%	76.9%	78.6%	2.4%	9 µM	> 10 µM	3.3%	44.3%	12.2%	2.4%	13.7%	0.1%	50.3%	6.4%	7.9%	-0.9%	23.4%	14%	Activity [10]: inactive; inhibition [19]: 17%
Cc1c(C(=O)NN2CCCCC2)nn(-c2ccc(Cl)cc2Cl)c1-c1ccc(I)cc1			-7.3%		84.6%	12.1%				72.7%	38.4%							-2%			
O=C(c1cccc(Cl)c1Cl)n1nc(OCCN2CCCCC2)c2ccccc21	78.2%	60.2%	-1.8%	87.2%	43.4%	1%	0.6 µM	10.5 µM	-1.3%	23.5%	3.1%	1.3%	15.6%	-1.2%	80.5%	2.4%	3.8%	-0.9%	29.4%	8.6%	Activity [10]: inactive; inhibition [19]: 18.1%
Cc1c(C(=O)c2cccc3ccccc23)c2cccc3c2n1[C@H](CN1CCOCC1)CO3	68.9%	54.8%	-3.9%	81.3%	52%	2%			2%	31.9%	11.5%	17.8%	54.5%	-1.1%	71.4%	22%	32.7%	-2.7%	61.8%	33.2%	
O=C(c1cccc(F)c1F)n1nc(OCCN2CCCC2)c2ccccc21	30.1%	21.2%	-1.6%	49.4%	29.9%	4.9%	11 µM	11 µM	-2.8%	23.3%	12.5%	0.8%	11%	-3.8%	37.5%	3.7%	3.6%	-1.2%	24.1%	13.2%	Activity [10]: inactive; inhibition [19]: 14%
